Laboratory results from patent US11083717B2, “Compositions and methods for drug sensitization of parasites” (The Texas A&M University System, priority 2015, dated 2021).
≈ marks a conversion by molar mass, not a printed value. Read-outs that look alike come from different tables or passages of the source.

Experiments:
[1] = HCLint in vitro intrinsic clearance, human (HLM); assay type: in vitro ADME
[2] = tested on: S. cerevisiae; test: in vitro; conditions: Saccharomyces cerevisiae
[3] = in vitro
[4] = tested on: human fibroblast; test: in vitro; conditions: human
[5] = Plasma pharmacokinetics in mouse; assay type: in vivo, female Balb/c mouse; conditions: for AUC(0-t): read-out: AUC0-24 (converted)
Description: To investigate the relationship between anticryptosporidial activity and systemic exposure the plasma pharmacokinetics for NZ-369 were measured. […] The pharmacokinetics of NZ-369 following single intravenous (IV) and oral administration (PO) at 3 and 10 mg free base/kg respectively to the female Balb/c mouse.

[6] = tested on: Cryptosporidium parvum (CP); test: Cell culture model of Cryptosporidium parvum infection in HCT-8 cells, real-time qRT-PCR; assay type: cell-based; conditions: Cryptosporidium parvum
Method in brief: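 HCT-8 monolayers were infected with C. parvum Iowa oocysts (1.5×10^4/well) for 3 h, then compounds were added after medium exchange and cells were incubated 41 h more (44 h total, 37 °C). Parasite Cp18S rRNA was measured by one-step SYBR qRT-PCR of lysates, normalized to host Hs18S, and % inhibition at the stated µM was derived from a standard curve.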

[7] = Plasma protein binding; assay type: in vitro ADME; conditions: mouse, mice, read-out: PPB (converted)
[8] = biological target: Human ether-a-go-go-related gene (hERG) (Homo sapiens, UniProt Q12809); test: hERG test (potential cardiotoxicity); assay type: biochemical; conditions: read-out: hERG (Abbvie)
[9] = MCLint in vitro intrinsic clearance, mouse (MLM); assay type: in vitro ADME
[10] = female, Balb/c, mouse, plasma, 3 mg/kg, IV 3 mg free base/kg, single dose
[11] = female, Balb/c, mouse, plasma, 10 mg/kg, PO 10 mg free base/kg, single dose

Sequence of Human ether-a-go-go-related gene (hERG) (Q12809 whole entry): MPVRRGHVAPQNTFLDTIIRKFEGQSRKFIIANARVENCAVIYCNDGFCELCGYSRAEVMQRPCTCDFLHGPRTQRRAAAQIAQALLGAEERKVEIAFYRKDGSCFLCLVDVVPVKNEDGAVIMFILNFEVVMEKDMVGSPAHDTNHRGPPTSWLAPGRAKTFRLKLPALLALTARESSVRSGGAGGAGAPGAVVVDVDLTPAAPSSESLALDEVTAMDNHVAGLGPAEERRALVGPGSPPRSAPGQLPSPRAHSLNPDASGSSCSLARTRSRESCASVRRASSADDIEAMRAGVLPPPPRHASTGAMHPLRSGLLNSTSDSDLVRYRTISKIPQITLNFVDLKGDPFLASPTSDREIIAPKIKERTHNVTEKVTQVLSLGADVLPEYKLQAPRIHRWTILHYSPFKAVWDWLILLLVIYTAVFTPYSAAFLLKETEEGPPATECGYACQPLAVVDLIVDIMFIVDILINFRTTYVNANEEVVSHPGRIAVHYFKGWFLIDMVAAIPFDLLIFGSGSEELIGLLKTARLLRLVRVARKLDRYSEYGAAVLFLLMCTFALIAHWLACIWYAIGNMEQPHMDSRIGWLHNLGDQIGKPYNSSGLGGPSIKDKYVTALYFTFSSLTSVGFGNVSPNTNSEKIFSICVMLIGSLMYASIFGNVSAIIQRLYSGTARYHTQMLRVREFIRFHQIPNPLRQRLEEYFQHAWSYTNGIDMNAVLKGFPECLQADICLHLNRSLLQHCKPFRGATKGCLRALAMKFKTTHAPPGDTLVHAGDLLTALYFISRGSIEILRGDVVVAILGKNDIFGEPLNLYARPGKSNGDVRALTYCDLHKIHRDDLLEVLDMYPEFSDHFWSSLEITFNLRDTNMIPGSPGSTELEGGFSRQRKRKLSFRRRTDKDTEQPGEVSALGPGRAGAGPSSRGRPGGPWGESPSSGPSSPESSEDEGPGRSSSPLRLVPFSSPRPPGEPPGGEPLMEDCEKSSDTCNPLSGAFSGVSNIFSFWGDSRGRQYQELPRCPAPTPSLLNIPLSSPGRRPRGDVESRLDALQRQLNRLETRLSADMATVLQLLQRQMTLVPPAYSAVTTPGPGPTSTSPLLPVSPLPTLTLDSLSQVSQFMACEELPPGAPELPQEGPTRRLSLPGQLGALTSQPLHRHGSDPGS

## CNC(=O)C(C)c1ccc(Oc2nc3ccc(Cl)cc3s2)cc1 (stereo not shown) [NZ-369, 2-{4-[(6-chloro-1,3-benzothiazol-2-yl)oxy]phenyl}-N-methylpropanamide]
[1]
  HCLint (mL/min/g liver), HLM: HLM = 0.69 mL/min/g liver
[2]
  concentrations at which not toxic, S. cerevisiae cytotoxicity testing: ≥ 100 µM
[3]; Saccharomyces cerevisiae
  IC50: > 100 µM
[3]; human
  IC50: > 100 µM
[4]
  concentrations at which not toxic, human fibroblast cytotoxicity testing: ≥ 100 µM
[5]; IV 3 mg free base/kg, single dose
  Clb: 6.6 mL/min/kg
[5]; [10]
  half-life: 3.4 h
  AUC(0-t): 7540 ng·h/mL
[5]; female, Balb/c, mouse, plasma, 3 mg/kg, IV 3 mg free base/kg, single dose, read-out: Vdss
  Vd: 1.7 L/kg
[5]; [11]
  Cmax: 2160 ng/mL
  Tmax: 2 h
  AUC(0-t): 19800 ng·h/mL
[5]; female, Balb/c, mouse, plasma, 10 mg/kg, printed in the IV column, PO 10 vs IV 3 mg free base/kg
  bioavailability: 78.8%
[5]; plasma
  systemic pharmacokinetics (in words): excellent systemic pharmacokinetics
[6]; 44 h, CP in HCT-8 cells, 44 h infection, 50% reduction of parasite growth vs control, NA: not active, read-out: MIC50
  MIC50: 50 to 80 nM (≈ 0.0173 to 0.0277 µg/mL)
[6]; read-out: MIC50 (nM) (CP)
  MIC50: 80 nM (≈ 0.0277 µg/mL)
[7]
  fraction unbound: 0.015
[8]
  IC50: > 30 µM
[9]
  MCLint (mL/min/g liver), MLM: MLM = 3.3 mL/min/g liver
